Laboratory results from patent publication US10023560B2, “Crystalline salt form of (S)-(2-(6 chloro-7-methyl-1H-benzo[d]imidazol-2-yl)-2-methylpyrrolidin-1-yl)(5-methoxy-2-(2H-1,2,3-triazol-2-yl)phenyl)methanone as orexin receptor antagonist” (priority 2013, dated 2018).

Legend:
[1] = test system: Wistar rats; assay: Sedative effects: EEG, EMG and behavioural indices of alertness by radiotelemetry; format: in vivo; conditions: 30 mg/kg po, effects analyzed over 6 hours
Procedure: Sedative Effects: EEG, EMG and Behavioural Indices of Alertness Recorded by Radiotelemetry In Vivo in Wistar Rats.
Electroencephalography (EEG) and Electromyography (EMG) signals were measured by telemetry using TL11M2-F20-EET miniature radiotelemetric implants (Data Science Int.) with two pairs of differential leads.
Surgical implantation was performed under general anesthesia with Ketamin/Xylazin, for cranial placement of one differential pair of EEG electrodes and one pair of EMG leads inserted in either side of the muscles of the neck. After surgery, rats recovered in a thermoregulated chamber and received analgesic treatment with subcutaneous buprenorphine twice a day for 2 d. They were then housed individually and allowed to recover for a minimum of 2 weeks. Thereafter, rats—in their home cage—were placed in a ventilated sound-attenuating box, on a 12-h light/12-h dark cycle, for acclimatization before continuous EEG/EMG recordings started. The telemetric technology that we used in this study allows accurate and stress-free acquisition of biosignals in rats placed in their familiar home cage environment, with no recording leads restricting their movements. Variables analyzed included four different stages of vigilance and sleep, spontaneous activity in the home cage and body temperature. Sleep and wake stages were evaluated using a rodent scoring software (Somnologica Science) directly processing electrical biosignals on 10 s contiguous epochs. The scoring is based on frequency estimation for EEG and amplitude discrimination for EMG and locomotor activity. Using these measurements, the software determines the probability that all components within each epoch best represent active waking (AW), quiet waking (QW), non-REM-sleep (NREM) or REM-sleep (REM). The percentage of total time spent in AW, QW, NREM- and REM-sleep was calculated per 12 h light or dark period. The latency to the onset of the first significant NREM- and REM-sleep episodes and the frequency and duration of those episodes were also calculated. […] All variables were subsequently recorded for 12 h following administration of the orexin receptor antagonist.

[2] = Gravimetric vapour sorption (GVS) analysis; format: physicochemical
Procedure: Gravimetric Vapour Sorption (GVS) Analysis
The sample was allowed to equilibrate at 40% RH before starting a pre-defined humidity program (40-0-95-0-95-40% RH, steps of 5% ΔRH and with a maximal equilibration time of 24 hours per step were applied. About 20 to 30 mg of each sample was used. The hygroscopic classification is done according to the European Pharmacopeia Technical Guide (1999, page 86), e.g., slightly hygroscopic: increase in mass is less than 2% and equal to or greater than 0.2% mass/mass; hygroscopic: increase in mass is less than 15% and equal to or greater than 2% mass/mass. The mass change between 40% relative humidity and 80% relative humidity in the first adsorption scan is considered.

[3] = test system: humans; conditions: indication primary insomnia; cited from earlier work
[4] = test system: rat; conditions: cited from earlier work
[5] = test system: rats; conditions: cited from earlier work
[6] = test system: rat; conditions: animal model of conditioned fear; cited from earlier work
[7] = test system: rats; conditions: rats treated with the compound; cited from earlier work
[8] = test system: amyloid precursor protein transgenic mice; conditions: after acute sleep restriction; cited from earlier work
[9] = test system: mouse; conditions: mouse model of depression, administered chronically; cited from earlier work
[10] = test system: fasted hungry rats; conditions: fasted hungry rats exposed to food odors; cited from earlier work
[11] = test system: rat; conditions: rat model; cited from earlier work
[12] = test system: rodents; conditions: cited from earlier work
[13] = test system: rodents; conditions: induced by repeated amphetamine administration in rodents; cited from earlier work

With COc1ccc(-n2nccn2)c(C(=O)N2CCC[C@@]2(C)c2nc3c(C)c(Cl)ccc3[nH]2)c1 [COMPOUND, (S)-(2-(6-chloro-7-methyl-1H-benzo[d]imidazol-2-yl)-2-methylpyrrolidin-1-yl)(5-methoxy-2-(2H-1,2,3-triazol-2-yl)phenyl)methanone] the “effect on NREM sleep compared to vehicle controls” value [1] was “+27%”, the “effect on REM sleep compared to vehicle controls” value [1] was “+53%” and the “effect on active wake compared to vehicle controls” value [1] was −24%. The “effect on home cage activity compared to vehicle controls” value [1] was −31% and the “Hygroscopicity: sorption of moisture” value ([2]; humidity program 40-0-95-0-95-40% RH, 25° C.) was at most 2.7 % moisture mass/mass.
For COc1ccc(-n2nccn2)c(C(=O)N2CCC[C@@]2(C)c2nc3ccc(Cl)c(C)c3[nH]2)c1.Cl [COMPOUND hydrochloride, (S)-(2-(6-chloro-7-methyl-1H-benzo[d]imidazol-2-yl)-2-methylpyrrolidin-1-yl)(5-methoxy-2-(2H-1,2,3-triazol-2-yl)phenyl)methanone hydrochloride], the Hygroscopicity classification ([2]; 25° C., European Pharmacopeia Technical Guide classification) was “Non hygroscopic (mass change smaller then”, the “Hygroscopicity: mass change” value ([2]; between 40% and 80% relative humidity, first adsorption scan, 25° C.) was under 0.1% and the “Sorption behavior between cycles” value ([2]; first to second cycle) was “Reproducible, cycle independent”.
For CNC(=O)[C@@H](c1ccccc1)N1CCc2cc(OC)c(OC)cc2[C@@H]1CCc1ccc(C(F)(F)F)cc1 [(2R)-2-{(1S)-6,7-dimethoxy-1-[2-(4-trifluoromethyl-phenyl)-ethyl]-3,4-dihydro-1H-isoquinolin-2-yl}-N-methyl-2-phenyl-acetamide], the clinical efficacy [3] is given as “showed clinical efficacy”, the “alertness (active wake and locomotion)” value [4] is given as “decrease alertness” and the “time spent in REM and NREM sleep” value [4] is given as “dose-dependently increase”. The “cardiovascular responses to conditioned fear and novelty exposure” value [5] was “attenuated”, the “activity in rat fear-potentiated startle paradigm” value [6] was “active” and the “declarative and non-declarative learning and memory” value [7] was “intact”. For the same molecule, the “brain levels of amyloid-beta (Aβ) and Aβ plaque deposition” value [8] was “decreased”, the antidepressant-like activity [9] was “induce antidepressant-like activity” and the “natural activation induced by orexin A” value [10] was “attenuate”. The “activity in nicotine self-administration” value [11] was “displayed pharmacological activity”.
In the case of Cn1c(SCC(=O)N2CCC[C@H]2C(=O)Nc2ccccc2-c2ccccc2)nc2ccccc21 [N-biphenyl-2-yl-1-{[(1-methyl-1H-benzimidazol-2-yl)sulfanyl]acetyl}-L-prolinamide], the “nicotine-reinstatement for a conditioned reinforcer” value [12] is given as “inhibited” and the “behavioral (locomotor sensitization) and molecular (transcriptional responses) changes” value [13] is given as “reduced”.
